Data taken from PubChem BioAssay AID248 (DTP/NCI, 2004).
Inconclusive results and toxic doses are left out. No stated cut-off is given here; in the data, active means T/C of 150% or more; inactive means T/C below 125%.

System: L1210 leukemia ip in BDF1 mice, survival T/C
Test: NCI In Vivo Anticancer Drug Screen. Data for tumor model L1210 Leukemia (intraperitoneal) in B6D2F1 (BDF1) mice
Details: endpoint: mean survival time, higher = longer survival
How it was run: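 Tumor cells were implanted, animals were treated, and survival was followed. The result divides the treated measurement by the vehicle-control measurement.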

[1] = dose: 100.0 mg/kg/injection, schedule: Q01DX001 (ip), vehicle: Klucel (hydroxypropylcellulose) (HPC)
[2] = dose: 100.0 mg/kg/injection, schedule: Q04DX003 (ip), vehicle: Klucel (hydroxypropylcellulose) (HPC)
[3] = dose: 200.0 mg/kg/injection, schedule: Q01DX001 (ip), vehicle: Klucel (hydroxypropylcellulose) (HPC)
[4] = dose: 200.0 mg/kg/injection, schedule: Q04DX003 (ip), vehicle: Klucel (hydroxypropylcellulose) (HPC)
[5] = dose: 400.0 mg/kg/injection, schedule: Q01DX001 (ip), vehicle: Klucel (hydroxypropylcellulose) (HPC)
[6] = dose: 400.0 mg/kg/injection, schedule: Q04DX003 (ip), vehicle: Klucel (hydroxypropylcellulose) (HPC)
[7] = dose: 100.0 mg/kg/injection, schedule: Q01DX009 (ip), vehicle: Klucel (hydroxypropylcellulose) (HPC)
[8] = dose: 200.0 mg/kg/injection, schedule: Q01DX009 (ip), vehicle: Klucel (hydroxypropylcellulose) (HPC)
[9] = dose: 400.0 mg/kg/injection, schedule: Q01DX009 (ip), vehicle: Klucel (hydroxypropylcellulose) (HPC)

Measured: T/C

CCN(CC)CCN(C)CC(=O)Nc1cccc(Cl)c1C
inactive: dose: 25.0 mg/kg/injection, schedule: Q01DX009 (ip), vehicle: saline 106 % of control | dose: 50.0 mg/kg/injection, schedule: Q01DX009 (ip), vehicle: saline 93 % of control | dose: 75.0 mg/kg/injection, schedule: Q01DX001 (ip), vehicle: saline 101 % of control | dose: 100.0 mg/kg/injection, schedule: Q01DX009 (ip), vehicle: saline 98 % of control | dose: 150.0 mg/kg/injection, schedule: Q01DX001 (ip), vehicle: saline 102 % of control | dose: 150.0 mg/kg/injection, schedule: Q01DX009 (ip), vehicle: saline 100 % of control

Cc1ccc(NC(=O)c2ccc(Cl)cc2Cl)cc1C
inactive: [1] 90 % of control | dose: 100.0 mg/kg/injection, schedule: Q01DX009 (ip), vehicle: saline with Tween-80 106 % of control | [2] 108 % of control | [3] 90 % of control | dose: 200.0 mg/kg/injection, schedule: Q01DX009 (ip), vehicle: saline with Tween-80 97 % of control | [4] 93 % of control | [5] 92 % of control | dose: 400.0 mg/kg/injection, schedule: Q01DX009 (ip), vehicle: saline with Tween-80 100 % of control | [6] 94 % of control

COCCCNP(=S)(OC)OC
inactive: dose: 100.0 mg/kg/injection, schedule: Q01DX001 (ip), vehicle: other 98 % of control | dose: 100.0 mg/kg/injection, schedule: Q04DX003 (ip), vehicle: other 98 % of control | dose: 200.0 mg/kg/injection, schedule: Q01DX001 (ip), vehicle: other 105 % of control | dose: 200.0 mg/kg/injection, schedule: Q04DX003 (ip), vehicle: other 98 % of control | dose: 400.0 mg/kg/injection, schedule: Q01DX001 (ip), vehicle: other 94 % of control | dose: 400.0 mg/kg/injection, schedule: Q04DX003 (ip), vehicle: other 101 % of control

O=Cc1ccccc1OCCCC[P+](c1ccccc1)(c1ccccc1)c1ccccc1
inactive: dose: 5.0 mg/kg/injection, schedule: Q01DX001 (ip), vehicle: saline 111 % of control | dose: 10.0 mg/kg/injection, schedule: Q01DX001 (ip), vehicle: saline 107 % of control | dose: 20.0 mg/kg/injection, schedule: Q01DX001 (ip), vehicle: saline 102 % of control

O=Cc1[nH]c(=S)[nH]c(=O)c1Cc1ccccc1Cl
inactive: [2] 101 % of control | [4] 98 % of control | [6] 97 % of control

NC(N)=N/N=C(\C(=N\N=C(N)N)c1ccccc1)c1ccccc1
inactive: dose: 60.0 mg/kg/injection, schedule: Q01DX Z (oral), vehicle: methylcellulose (MC) 98 % of control | dose: 120.0 mg/kg/injection, schedule: Q01DX Z (oral), vehicle: methylcellulose (MC) 96 % of control | dose: 240.0 mg/kg/injection, schedule: Q01DX Z (oral), vehicle: methylcellulose (MC) 94 % of control | dose: 480.0 mg/kg/injection, schedule: Q01DX Z (oral), vehicle: methylcellulose (MC) 91 % of control

CNC(Cc1ccc(OCc2ccccc2)cc1)C(=O)NC(CO)CC(C)C (centres undefined)
inactive: dose: 100.0 mg/kg/injection, schedule: Q04DX003 (ip), vehicle: saline with Tween-80 102 % of control | dose: 200.0 mg/kg/injection, schedule: Q04DX003 (ip), vehicle: saline with Tween-80 96 % of control | dose: 400.0 mg/kg/injection, schedule: Q04DX003 (ip), vehicle: saline with Tween-80 105 % of control

CCCOC(=O)COc1ccc(Cl)cc1C
inactive: [2] 96 % of control | [4] 96 % of control | [6] 91 % of control

Fc1cc(N(CCCl)CCCl)ccc1C=Nc1ccc(-n2ccnc2)cc1
inactive: dose: 62.5 mg/kg/injection, schedule: Q04DX002 (ip), vehicle: Klucel (hydroxypropylcellulose) (HPC) 102 % of control | dose: 125.0 mg/kg/injection, schedule: Q04DX002 (ip), vehicle: Klucel (hydroxypropylcellulose) (HPC) 106 % of control | dose: 250.0 mg/kg/injection, schedule: Q04DX002 (ip), vehicle: Klucel (hydroxypropylcellulose) (HPC) 106 % of control

CCOC(=O)c1ccc(N=C2C(C)(C)C(=Nc3ccc(C(=O)OCC)cc3)C2(C)C)cc1
inactive: dose: 100.0 mg/kg/injection, schedule: Q04DX002 (ip), vehicle: saline with Tween-80 93 % of control | dose: 200.0 mg/kg/injection, schedule: Q04DX002 (ip), vehicle: saline with Tween-80 87 % of control | dose: 400.0 mg/kg/injection, schedule: Q04DX002 (ip), vehicle: saline with Tween-80 87 % of control

O=[N+]([O-])c1ccc(N/N=C/c2ccnc3ccccc23)cc1
inactive: [7] 93 % of control | [8] 91 % of control | [9] 91 % of control

CCOC(=O)C1=CC(=O)C(C(=O)OCC)=CC1=O
inactive: dose: 100.0 mg/kg/injection, schedule: Q01DX001 (ip), vehicle: carboxymethylcellulose (CMC) 98 % of control | dose: 200.0 mg/kg/injection, schedule: Q01DX001 (ip), vehicle: carboxymethylcellulose (CMC) 98 % of control | dose: 400.0 mg/kg/injection, schedule: Q01DX001 (ip), vehicle: carboxymethylcellulose (CMC) 104 % of control

COC(=O)c1ccc2c(c1)OCO2
inactive: dose: 100.0 mg/kg/injection, schedule: Q01DX001 (ip), vehicle: saline with Tween-80 100 % of control | dose: 100.0 mg/kg/injection, schedule: Q01DX009 (ip), vehicle: saline sonified 94 % of control | dose: 200.0 mg/kg/injection, schedule: Q01DX001 (ip), vehicle: saline with Tween-80 103 % of control | dose: 200.0 mg/kg/injection, schedule: Q01DX009 (ip), vehicle: saline sonified 100 % of control | dose: 400.0 mg/kg/injection, schedule: Q01DX001 (ip), vehicle: saline with Tween-80 95 % of control | dose: 400.0 mg/kg/injection, schedule: Q01DX009 (ip), vehicle: saline sonified 102 % of control

CCOc1ccc2c(c1)C(C)=CC(C)(C)N2
inactive: [2] 93 % of control | [4] 101 % of control | [6] 121 % of control

Cc1ccc(CNc2cccc([N+](=O)[O-])c2)cc1
inactive: [7] 98 % of control | [2] 98 % of control | [8] 93 % of control | [4] 96 % of control | [9] 102 % of control | [6] 101 % of control

COc1ccccc1OS(=O)(=O)c1ccc(COc2ccc([N+](=O)[O-])cc2Cl)cc1
inactive: [1] 93 % of control | [3] 98 % of control | [5] 96 % of control

C(=N\Nc1nnc(N/N=C/c2cccc3ccccc23)c2ccccc12)/c1cccc2ccccc12
inactive: dose: 50.0 mg/kg/injection, schedule: Q01DX001 (ip), vehicle: saline 92 % of control | dose: 100.0 mg/kg/injection, schedule: Q01DX001 (ip), vehicle: saline 92 % of control | dose: 200.0 mg/kg/injection, schedule: Q01DX001 (ip), vehicle: saline 92 % of control | dose: 400.0 mg/kg/injection, schedule: Q01DX001 (ip), vehicle: saline 92 % of control

OCCOc1c(Cl)c(C(Cl)(Cl)Cl)nc2ccccc12
inactive: dose: 25.0 mg/kg/injection, schedule: Q01DX001 (ip), vehicle: Klucel (hydroxypropylcellulose) (HPC) 103 % of control | dose: 50.0 mg/kg/injection, schedule: Q01DX001 (ip), vehicle: Klucel (hydroxypropylcellulose) (HPC) 106 % of control | [1] 106 % of control
